Assay results: the supplement of paper PMC10307832

How the values were obtained:
Test in all cases: relative viability (nuclei count vs DMSO), 5 days (fraction); higher = more cells survive
[1] = compound: C1=CC=C2C(=C1)N=C(S2)C(C#N)C3=NC(=NC=C3)NCCC4=CN=CC=C4 + C[C@]1(O)C[C@@H](c2nc(-c3ccc4ccc(-c5ccccc5)nc4c3)c3c(N)nccn32)C1 [Linsitinib] (partner 1 µM)
How it was run: (§1)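 For relative viability, nuclei counts in treated wells were divided by those in vehicle wells. Lung cancer cell lines had been pin-tool dosed in 1536-well plates the day after seeding and cultured for 5 days, then fixed and stained in one step (final 0.05% Triton X-100, 1% formaldehyde, 1 ug/ml Hoechst) and imaged at 4×. Doses were one drug alone or a fixed anchor-drug dose plus five library-drug doses (not always all listed) in √10 steps, and values are duplicate-plate medians.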

[2] = compound: C1=CC=C2C(=C1)N=C(S2)C(C#N)C3=NC(=NC=C3)NCCC4=CN=CC=C4 + NC(=O)Nc1cc(-c2cccc(F)c2)sc1C(=O)N[C@H]1CCCNC1 [AZD7762] (partner 0.2 µM)
How it was run: as §1

Vandetanib + Alpelisib = compound: COc1cc2/c(=N/c3ccc(Br)cc3F)nc[nH]c2cc1OCC1CCN(C)CC1 [Vandetanib] + Cc1nc(NC(=O)N2CCC[C@H]2C(N)=O)sc1-c1ccnc(C(C)(C)C(F)(F)F)c1 [Alpelisib] (partner 2 µM)
How it was run: as §1

NVP-TAE684 + Dasatinib = compound: COc1cc(N2CCC(N3CCN(C)CC3)CC2)ccc1Nc1ncc(Cl)c(Nc2ccccc2S(=O)(=O)C(C)C)n1 [NVP-TAE684] + Cc1nc(Nc2ncc(C(=O)Nc3c(C)cccc3Cl)s2)cc(N2CCN(CCO)CC2)n1 [Dasatinib] (partner 0.075 µM)
How it was run: as §1

| Cell Line | relative viability ([1]; first compound 0.005 µM) | relative viability ([1]; first compound 0.01581 µM) | relative viability ([1]; first compound 0.05 µM) | relative viability ([1]; first compound 0.1581 µM) | relative viability ([1]; first compound 0.5 µM) | relative viability ([2]; first compound 0.005 µM) | relative viability ([2]; first compound 0.01581 µM) | relative viability ([2]; first compound 0.05 µM) | relative viability ([2]; first compound 0.1581 µM) | relative viability ([2]; first compound 0.5 µM) | relative viability (Vandetanib + Alpelisib; first compound 0.02 µM) | relative viability (Vandetanib + Alpelisib; first compound 0.06325 µM) | relative viability (Vandetanib + Alpelisib; first compound 0.2 µM) | relative viability (Vandetanib + Alpelisib; first compound 0.6325 µM) | relative viability (Vandetanib + Alpelisib; first compound 2 µM) | relative viability (NVP-TAE684 + Dasatinib; first compound 0.2 µM) | relative viability (NVP-TAE684 + Dasatinib; first compound 0.6325 µM) | relative viability (NVP-TAE684 + Dasatinib; first compound 2 µM) |
| --- | --- | --- | --- | --- | --- | --- | --- | --- | --- | --- | --- | --- | --- | --- | --- | --- | --- | --- |
| LOU-NH91 | 0.919 | 0.931 | 0.834 | 0.973 | 0.935 | 0.687 | 0.758 | 0.734 | 0.798 | 0.724 | 0.753 | 0.619 | 0.539 | 0.551 | 0.481 | 0.544 | 0.453 | 0.231 |
| LU99A | 0.517 | 0.517 | 0.553 | 0.611 | 0.553 | 0.444 | 0.469 |  | 0.343 | 0.262 | 0.52 | 0.446 | 0.511 | 0.414 | 0.596 | 0.475 | 0.392 | 0.179 |
| LXF-289 | 0.853 | 1.01 | 1.05 | 1.04 | 0.92 | 1.01 | 1.17 | 1.06 | 1.27 | 0.982 | 1.05 | 1 | 1.02 | 1.03 | 1.04 | 0.191 | 0.141 | 0.111 |
| NCI-H23 |  | 0.685 | 0.583 | 0.85 | 0.533 |  | 0.239 | 0.254 | 0.175 | 0.249 | 0.609 | 0.613 | 0.566 | 0.772 | 0.532 |  | 0.638 | 0.249 |
| NCI-H322M | 0.88 | 1.03 | 0.899 | 0.987 | 0.803 | 0.522 | 0.522 | 0.436 | 0.564 | 0.56 | 0.772 | 0.746 | 0.777 | 0.709 | 0.866 | 0.241 | 0.223 | 0.246 |
| NCI-H358 | 0.533 | 0.739 | 0.654 | 0.722 | 0.654 | 0.579 | 0.492 |  | 0.592 | 0.496 | 0.741 | 0.733 | 0.175 | 0.533 | 0.385 | 0.162 | 0.136 | 0.112 |
| NCI-H441 |  | 0.499 | 0.533 | 0.617 | 0.447 | 1.02 | 1.14 | 1.28 | 1.02 | 0.986 | 0.795 | 0.535 | 0.896 | 0.848 | 0.728 | 0.461 | 0.398 | 0.216 |
| NCI-H460 |  | 1.15 | 1.02 | 1.17 | 0.502 | 0.508 | 0.641 | 0.672 | 0.69 | 0.43 | 0.503 | 0.556 | 0.0233 | 0.434 | 0.419 | 0.703 | 0.285 | 0.0445 |
| NCI-H596 | 0.921 | 1.12 | 1.05 | 1.15 | 0.951 | 0.985 | 1.31 | 1 | 1.2 | 1.09 | 0.515 | 0.518 | 0.618 | 0.593 | 0.453 | 0.629 | 0.397 | 0.286 |
| NCI-H647 |  | 1.17 | 1.16 | 1.25 | 0.976 | 0.27 | 0.281 | 0.513 | 0.512 | 0.372 | 1.03 | 1.1 | 1.11 | 1.1 | 0.786 | 0.0949 | 0.103 | 0.0648 |
| NCI-H650 | 0.838 | 0.578 | 0.803 | 1.26 | 0.984 | 1.12 | 1.07 | 0.891 | 1.23 | 1.09 | 1.13 | 0.998 | 1.08 | 1.04 | 0.905 | 0.513 | 0.376 | 0.262 |
| NCI-H727 | 0.328 | 0.321 | 0.228 | 0.396 | 0.298 | 0.788 | 0.533 | 0.667 | 0.626 | 0.618 | 0.619 | 0.56 | 0.405 | 0.496 | 0.322 | 0.383 | 0.273 | 0.232 |
| NCI-H838 | 0.713 | 1.08 | 0.957 | 1.03 | 0.874 | 0.889 | 0.891 | 0.907 | 0.92 | 0.836 | 0.98 | 0.957 | 0.991 | 1.04 | 1.05 | 0.295 | 0.23 | 0.238 |
| NCI-H1355 | 0.764 | 0.849 | 0.847 | 1.05 | 0.714 | 0.702 | 0.698 | 0.675 | 0.967 | 0.559 | 0.811 | 0.772 | 0.466 | 0.958 | 0.822 | 0.673 | 0.534 | 0.372 |
| NCI-H1395 | 1.07 |  | 0.978 | 1.07 | 1.29 | 0.392 |  | 0.379 | 0.428 | 0.389 | 1.03 | 1.28 | 1.22 | 1.04 | 0.998 | 0.408 | 0.387 | 0.317 |
| NCI-H1437 | 0.789 | 1.23 | 1.09 | 1.11 | 0.692 | 1.12 | 1.12 | 1.11 | 1.13 | 0.968 | 0.922 | 0.965 | 0.94 | 1 | 0.902 | 0.363 | 0.272 | 0.128 |
| NCI-H1651 | 0.695 | 0.846 | 1 | 1.18 | 0.921 | 0.428 | 0.463 | 0.533 | 0.509 | 0.471 | 0.912 | 0.905 | 0.953 | 1.02 | 0.837 | 0.326 | 0.321 | 0.146 |
| NCI-H1666 | 0.81 | 0.846 | 0.722 | 0.91 | 0.766 | 0.956 | 0.764 | 0.817 | 0.805 | 0.803 | 0.89 | 0.764 | 0.793 | 0.668 | 0.401 | 0.813 | 0.708 | 0.46 |
